Drawing on patent publication US6653300B2, “Pyrazole compounds useful as protein kinase inhibitors” (Vertex Pharmaceuticals Incorporated, priority 2000, dated 2003), this text covers Ki and melting point for nine compounds.

Some results are limits rather than exact numbers.

One data set concerns the target CDK-2/Cyclin A (Homo sapiens, UniProt P24941). Nature of the data set: CDK-2 inhibition assay (coupled enzyme assay). The data set is classed as biochemical. The following applies: 25 nM CDK-2/Cyclin A, 30° C. The protocol:
Compounds were screened in the following manner for their ability to inhibit CDK-2 using a standard coupled enzyme assay (Fox et al (1998) Protein Sci 7, 2249).
To an assay stock buffer solution containing 0.1M HEPES 7.5, 10 mM MgCl2, 1 mM DTT, 25 mM NaCl, 2.5 mM phosphoenolpyruvate, […], 30 mg/ml pyruvate kinase, 10 mg/ml lactate dehydrogenase, 100 mM ATP, and 100 μM peptide ([…], American Peptide, Sunnyvale, Calif.) was added a DMSO solution of a compound of the present invention to a final concentration of 30 μM. The resulting mixture was incubated at 30° C. for 10 min.
The reaction was initiated by the addition of 10 μL of CDK-2/Cyclin A stock solution to give a final concentration of 25 nM in the assay. The rates of reaction were obtained by monitoring absorbance at 340 nm over a 5-minute read time at 30° C. using a BioRad Ultramark plate reader (Hercules, Calif.). The Ki values were determined from the rate data as a function of inhibitor concentration.

The target in the next data set is activated ERK2 (Homo sapiens, UniProt P28482). The data set is described as follows: ERK inhibition assay (spectrophotometric coupled-enzyme assay). The following applies: 10 nM activated ERK2, 65 μM ATP, 30° C.; read-out: Ki values for ERK-2. Type of data set: biochemical. The method, then: Compounds were assayed for the inhibition of ERK2 by a spectrophotometric coupled-enzyme assay (Fox et al (1998) Protein Sci 7, 2249).
Sequence of activated ERK2 (P28482 whole entry): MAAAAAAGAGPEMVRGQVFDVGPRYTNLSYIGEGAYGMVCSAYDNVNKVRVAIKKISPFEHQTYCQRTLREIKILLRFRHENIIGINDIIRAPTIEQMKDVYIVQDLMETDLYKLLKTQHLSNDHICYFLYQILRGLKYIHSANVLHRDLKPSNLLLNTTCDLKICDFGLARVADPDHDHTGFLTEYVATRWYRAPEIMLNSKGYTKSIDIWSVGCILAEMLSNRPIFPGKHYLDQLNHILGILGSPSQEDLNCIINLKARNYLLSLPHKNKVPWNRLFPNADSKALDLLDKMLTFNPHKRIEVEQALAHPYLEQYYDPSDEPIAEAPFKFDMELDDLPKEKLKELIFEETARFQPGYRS

The target of another data set is T1, human Src kinase (Homo sapiens, UniProt P12931).
T1 construct: full length recombinant human Src kinase (from Upstate Biotechnology, cat. no. 14-117); purchased Upstate Biotechnology 14-117; host or cells: baculo viral cells
T1 sequence (P12931 whole entry): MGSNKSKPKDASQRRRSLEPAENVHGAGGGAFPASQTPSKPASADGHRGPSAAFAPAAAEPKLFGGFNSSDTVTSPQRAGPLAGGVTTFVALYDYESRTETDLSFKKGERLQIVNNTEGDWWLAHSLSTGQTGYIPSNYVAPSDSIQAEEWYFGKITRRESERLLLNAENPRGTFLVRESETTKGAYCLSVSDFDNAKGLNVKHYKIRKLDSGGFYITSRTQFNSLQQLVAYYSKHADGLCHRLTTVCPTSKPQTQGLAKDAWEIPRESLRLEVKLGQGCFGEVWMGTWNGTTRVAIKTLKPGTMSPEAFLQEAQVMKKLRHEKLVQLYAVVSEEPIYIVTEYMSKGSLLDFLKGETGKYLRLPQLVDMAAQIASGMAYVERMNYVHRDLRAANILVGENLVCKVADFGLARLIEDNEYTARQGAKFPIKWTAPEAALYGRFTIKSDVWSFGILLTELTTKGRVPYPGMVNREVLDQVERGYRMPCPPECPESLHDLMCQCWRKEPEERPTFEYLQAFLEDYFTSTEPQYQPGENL
Nature of the data set: SRC inhibition assay (radioactivity-based or spectrophotometric assay). The data set is classed as biochemical. Particulars: recombinant human Src kinase; assay A or B; read-out: Ki value on SRC. In a few lines:
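Full-length recombinant human Src from baculovirus was used. In the radiometric format, enzyme was preincubated 10 min at 30 °C, the reaction was started with ^33P-ATP and run 20 min, then TCA-quenched and filter-counted. The alternative format monitored poly Glu-Tyr phosphorylation by NADH-coupled A340 rate. Ki came from competitive-inhibition fits.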

A further data set addresses T2, GSK-3β (AA 1-420) (Homo sapiens, UniProt P49841).
T2 construct: GSK-3β (AA 1-420)
The data set is described as follows: Ki determination for the inhibition of GSK-3 (coupled enzyme system). Type of data set: biochemical. The following applies: 20 μM ATP, 20 nM GSK-3β, 30° C. In a few lines: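 GSK-3β (AA 1-420, 20 nM) was run in a pyruvate kinase/LDH-coupled NADH assay in 100 mM HEPES pH 7.5, 10 mM MgCl2, 25 mM NaCl, 1 mM DTT, 1.5% DMSO, with 300 μM phosphopeptide substrate. Compound (0.002–30 μM) was preincubated 10 min at 30° C, then 20 μM ATP was added.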

Another data set addresses T3, Aurora-2 (Homo sapiens, UniProt O14965).
T3 sequence (O14965 1-403): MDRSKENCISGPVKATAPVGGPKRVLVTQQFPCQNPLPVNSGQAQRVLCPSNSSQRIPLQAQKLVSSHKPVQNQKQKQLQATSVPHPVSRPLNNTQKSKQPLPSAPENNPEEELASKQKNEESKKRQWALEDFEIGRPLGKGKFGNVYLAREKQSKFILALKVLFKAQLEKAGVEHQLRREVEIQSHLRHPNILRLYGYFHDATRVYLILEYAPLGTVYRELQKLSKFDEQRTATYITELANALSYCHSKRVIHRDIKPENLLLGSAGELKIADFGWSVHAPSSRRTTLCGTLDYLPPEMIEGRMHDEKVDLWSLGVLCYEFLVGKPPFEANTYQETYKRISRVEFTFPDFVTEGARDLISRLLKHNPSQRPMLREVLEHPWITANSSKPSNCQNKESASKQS
Nature of the data set: Ki determination for the inhibition of Aurora-2 (coupled enzyme assay). The data set is classed as biochemical. Particulars: 70 nM Aurora-2, 30° C. In a few lines:
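Ki came from reaction rates plotted against inhibitor concentration, with rates taken as A340 decrease over 5 min at 30° C. Enzyme (70 nM final) was added after 10 min compound preincubation; stock buffer held […], 800 μM LRRASLG, PK/LDH coupling, pH 7.5.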

For a further data set, the target named is AKT-3 (Homo sapiens, UniProt Q9Y243). The data set is described as follows: AKT inhibition assay (coupled enzyme assay). Type of data set: biochemical. Particulars: 45 nM AKT, 170 μM ATP, 30° C. The method, then:
Compounds were screened for their ability to inhibit AKT using a standard coupled enzyme assay (Fox et al., Protein Sci., (1998) 7, 2249). Assays were carried out in a mixture of 100 mM HEPES 7.5, 10 mM MgCl2, 25 mM NaCl, 1 mM DTT and 1.5% DMSO. Final substrate concentrations in the assay were 170 μM ATP (Sigma Chemicals) and 200 μM peptide (RPRAATF, American Peptide, Sunnyvale, Calif.). Assays were carried out at 30° C. and 45 nM AKT. Final concentrations of the components of the coupled enzyme system were 2.5 mM phosphoenolpyruvate, 300 μM NADH, 30 μg/ML pyruvate kinase and 10 μg/ml lactate dehydrogenase.
An assay stock buffer solution was prepared containing all of the reagents listed above, with the exception of AKT, DTT, and the test compound of interest. 56 μl of the stock solution was placed in a 384 well plate followed by addition of 1 μl of 2 mM DMSO stock containing the test compound (final compound concentration 30 μM). The plate was preincubated for about 10 minutes at 30° C. and the reaction initiated by addition of 10 μl of enzyme (final concentration 45 nM) and 1 mM DTT. Rates of reaction were obtained using a BioRad Ultramark plate reader (Hercules, Calif.) over a 5 minute read time at 30° C.

T2 sequence (P49841 whole entry, the tested form may be a part): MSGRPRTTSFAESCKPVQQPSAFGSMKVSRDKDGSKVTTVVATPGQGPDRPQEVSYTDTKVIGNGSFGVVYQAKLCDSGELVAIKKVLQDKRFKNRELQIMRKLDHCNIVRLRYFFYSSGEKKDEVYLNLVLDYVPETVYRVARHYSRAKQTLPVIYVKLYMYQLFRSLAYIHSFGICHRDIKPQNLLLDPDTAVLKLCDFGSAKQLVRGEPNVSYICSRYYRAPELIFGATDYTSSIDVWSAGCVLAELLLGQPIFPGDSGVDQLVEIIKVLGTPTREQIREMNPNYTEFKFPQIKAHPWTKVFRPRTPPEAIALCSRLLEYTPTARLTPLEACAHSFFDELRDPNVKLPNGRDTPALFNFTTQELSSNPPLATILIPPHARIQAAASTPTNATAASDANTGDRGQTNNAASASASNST
Sequence of AKT-3 (Q9Y243 whole entry, species assumed): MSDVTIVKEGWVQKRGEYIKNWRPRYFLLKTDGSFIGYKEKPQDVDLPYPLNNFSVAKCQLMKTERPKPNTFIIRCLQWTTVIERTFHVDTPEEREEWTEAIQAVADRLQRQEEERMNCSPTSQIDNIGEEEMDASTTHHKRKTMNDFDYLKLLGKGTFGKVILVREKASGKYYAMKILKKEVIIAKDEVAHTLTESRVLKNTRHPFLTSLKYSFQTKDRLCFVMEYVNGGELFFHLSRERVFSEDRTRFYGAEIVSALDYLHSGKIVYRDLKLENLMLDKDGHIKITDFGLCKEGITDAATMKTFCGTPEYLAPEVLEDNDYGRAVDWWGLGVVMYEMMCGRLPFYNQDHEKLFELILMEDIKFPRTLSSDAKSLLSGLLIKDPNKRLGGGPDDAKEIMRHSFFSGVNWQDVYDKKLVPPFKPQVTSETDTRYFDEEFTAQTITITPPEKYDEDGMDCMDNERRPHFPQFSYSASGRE

As a reminder, the Ki is a dissociation constant, usually derived from enzyme kinetics or from competition with a known ligand. Usually melting point stands for the temperature, or range, at which the solid turns liquid. On to `N#CCc1ccc(Nc2nc(Nc3cc(C4CC4)[nH]n3)cc(-c3ccccc3)n2)cc1` [IIIc-4, [2-(4-cyanomethylphenylamino)-6-phenyl-pyrimidin-4-yl]-(5-cyclopropyl-2H-pyrazol-3-yl)-amine], for which the melting point was in the range of 294 to 297 °C. The compound also gave a Ki on CDK-2/Cyclin A below 1000 nM. In addition, the Ki on activated ERK2 is below 1000 nM.
Regarding `CC(=O)Nc1ccc(Sc2nc(Nc3cc(C4CC4)[nH]n3)c3ccccc3n2)cc1` [IIa-36, [2-(4-Acetamido-phenylsulfanyl)-quinazolin-4-yl]-(5-cyclopropyl-2H-pyrazol-3-yl)-amine], the figures for the Ki at CDK-2/Cyclin A and at activated ERK2 were below 1000 nM and 1000 to 20000 nM, respectively.
With `Cc1cc(Nc2nc(Nc3ccc(CC#N)cc3)nc3ccccc23)n[nH]1` [IIc-15, [2-(4-Cyanomethylphenylamino)-quinazolin-4-yl]-(5-methyl-2H-pyrazol-3-yl)-amine], the melting point is above 250 °C. This compound returned an inhibition constant (Ki) at CDK-2/Cyclin A below 1000 nM. Further, at human Src kinase, the inhibition constant (Ki) is below 100 nM. Further, the Ki on activated ERK2 is below 1000 nM. The same compound returned a Ki on GSK-3β (AA 1-420) below 100 nM. The same compound gave an inhibitory constant (Ki) on Aurora-2 below 100 nM.
`c1ccc(Nc2nc(Nc3cc(C4CC4)[nH]n3)c3ccccc3n2)cc1` [IIc-18, (5-Cyclopropyl-2H-pyrazol-3-yl)-(2-phenylamino-quinazolin-4-yl)-amine] returned a melting point of 234 °C. Besides, the Ki at AKT-3 lay within 1000 to 20000 nM. In addition, the Ki at human Src kinase is below 100 nM. Also, the inhibition constant Ki on activated ERK2 was in the range of 1000 to 20000 nM. For the same compound, the Ki on GSK-3β (AA 1-420) is below 100 nM. In addition, the Ki at Aurora-2 is below 100 nM.
On to `CCc1ccc(Nc2nc(Nc3cc(C4CC4)[nH]n3)c3ccccc3n2)cc1` [IIc-25, (5-Cyclopropyl-2H-pyrazol-3-yl)-[2-(4-ethylphenylamino)-quinazolin-4-yl]-amine], for which the melting point fell in the range of 250 to 251 °C. Also, on CDK-2/Cyclin A, the Ki is below 1000 nM. At AKT-3, this compound gave a Ki of 1000 to 20000 nM. Besides, on activated ERK2, the Ki lay within 1000 to 20000 nM. On GSK-3β (AA 1-420), this compound returned a Ki below 100 nM. The compound further came in with a Ki at Aurora-2 below 100 nM.
As to `OCCc1ccc(Nc2nc(Nc3cc(C4CC4)[nH]n3)c3ccccc3n2)cc1` [IIc-27, (5-Cyclopropyl-2H-pyrazol-3-yl)-{2-[4-(2-hydroxyethyl)phenylamino]-quinazolin-4-yl}-amine], the melting point fell in the range of 255 to 256 °C. This compound also yielded a Ki at CDK-2/Cyclin A below 1000 nM. The inhibition constant Ki at AKT-3 was in the range of 1000 to 20000 nM. For the same compound, at activated ERK2, the inhibition constant Ki is below 1000 nM. Further, the inhibition constant Ki on GSK-3β (AA 1-420) is below 100 nM. The compound further gave an inhibition constant (Ki) on Aurora-2 below 100 nM.
As for `COC(=O)c1cccc(Nc2nc(Nc3cc(C4CC4)[nH]n3)c3ccccc3n2)c1` [IIc-39, (5-Cyclopropyl-2H-pyrazol-3-yl)-[2-(3-methoxycarbonylphenylamino)-quinazolin-4-yl]-amine], the melting point lay in the range of 228 to 231 °C. Besides, at AKT-3, the inhibition constant (Ki) lay within 1000 to 20000 nM. For the same compound, the inhibition constant (Ki) at human Src kinase was below 100 nM. Besides, on GSK-3β (AA 1-420), the inhibition constant Ki was below 100 nM. The Ki on Aurora-2 is below 100 nM.
`Cc1cccc(Nc2nc(Nc3cc(C4CC4)[nH]n3)c3ccccc3n2)c1C` [IIc-42, (5-Cyclopropyl-2H-pyrazol-3-yl)-[2-(2,3-dimethylphenylamino)-quinazolin-4-yl]-amine] came in with a melting point of 241 to 242 °C. On AKT-3, this compound came in with an inhibition constant Ki of 1000 to 20000 nM. Further, on human Src kinase, the Ki is below 100 nM. On GSK-3β (AA 1-420), this compound had a Ki below 100 nM. The compound further displayed an inhibition constant (Ki) at Aurora-2 below 100 nM.
`Cc1cc(Nc2nc(Nc3ccc4ncsc4c3)nc3ccccc23)n[nH]1` [IIc-53, [2-(Benzothiazol-6-ylamino)-quinazolin-4-yl]-(5-methyl-2H-pyrazol-3-yl)-amine]: the melting point lay in the range of 236 to 239 °C. The same compound registered an inhibition constant (Ki) on CDK-2/Cyclin A below 1000 nM. On AKT-3, the Ki is 1000 to 20000 nM. In addition, the inhibitory constant (Ki) at activated ERK2 was below 1000 nM. This compound also yielded a Ki on GSK-3β (AA 1-420) below 100 nM. Moreover, the Ki at Aurora-2 is below 100 nM.
